From patent US20040039157A1, “Anti-angiogenic peptides” (priority 2000, published 2004)

Legend:
[1] = tested on: CT26 tumours; experiment: In vivo efficacy on growth of subcutaneous CT26 tumours; parameters: species or system Balb/c mice; settings: daily ip α1-24, p<0.001
Description: Experiments were performed on six-week-old Balb/C mice weighing 15 g, obtained from Sheffield Field Laboratories. All experiments were approved by the Home Office Project Licence Number PPL50/1414.
The CT26 cell line was maintained by in vitro passage in Dulbecco's Minimal Eagles Medium containing 10% foetal calf serum, and 1% penicillin and streptomycin and maintained at 37° C. in humidified atmosphere of 5% CO2 in air. The cell line was routinely checked to ensure freedom from mycoplasma (Mycoplasma rapid detection system, Gena-Probe Incorporated, U.S.A.).
Animals were anaesthetised with an intraperitoneal injection of diazepam (0.5 mg/ml, Dumex Ltd.) and hypnorm (fentanyl citrate 0.0315 mg/ml and fluanisone 1 mg/ml, Janssen Pharmaceutical Ltd.) in the ratio of 1:1 at a volume of 0.1 ml/200 g body weight, with supplementation as required to maintain adequate anaesthesia. […] Tumour growth and animal weights were monitored daily.
Tumour growth was measured daily and when the majority of animals in the cohort had tumour volumes of >100 mm^3 but <350 mm^3 animals were divided into experimental and control groups. […]
Tumour volumes were assessed by calliper measurements of the perpendicular diameters and volumes estimated using the equation: […]
where a is the smaller and b the larger diameter Animals were weighed on a daily basis and the general well being monitored.

[2] = tested on: SVEC4-10 cells; experiment: Tubule formation assay on GF-reduced Matrigel, SVEC4-10 cells; format: cell-based, Murine; settings: FIG. 4, 6 h
Description: Adult human dermal microvascular endothelial cells (HuDMECs) were obtained commercially (TCS Biologicals, Buckinghamshire, United Kingdom) and cultured in microvascular endothelial cell growth medium (EGM). This medium contains heparin (10 ng/ml), hydrocortisone, human epidermal growth factor (10 ng/ml), human fibroblast growth factor (10 ng/ml) (such endothelial growth factors are necessary for routine passaging of HuDMECs in culture) and dibutyryl cyclic AMP. This was supplemented with 5% heat-inactivated FCS, 50 μg/ml gentamicin and 50 ng/ml amphotericin B (TCS Biologicals, United Kingdom). Murine endothelial cells (SVEC 4-10) were obtained from the ATCC and cultured in DMEM+10% FCS. Cells were grown at 37° C. in a 100% humidified incubator with a gas phase of 5% CO2 and routinely screened for Mycoplasma. Prior to their use in the assays indicated below, HuDMECs were grown to 80% confluency, incubated in DMEM+1% FCS for 2 h, then harvested with 0.05% trypsin solution, washed twice and resuspended to the cell density required for each assay (see below).
24 well plates were coated with 30 μl/well of growth factor-reduced (GF-reduced) Matrigel (Becton Dickinson Labware, Bedford, Mass.). […] Tubule formation was assessed by counting the number of tubule branches and the total area covered by tubules in each field of view using image analysis software supplied by Scion Image.

Sequence: ADSGEGDFLAEGGGVRGPRVVERH (ADSGEGDFLAEGGGVRGPRVVERH) [α1-24, 24 amino acid peptide from the amino terminus of the fibrinogen α chain]
- final tumour volume ([1]; Example 1, day 14, starting volume 235±30, vehicle control final 2245±371): 1341±145 mm^3
- final tumour volume ([1]; Example 2, day 12, starting volume 338±39, vehicle control final 3072±255): 2029±504 mm^3
- tubule formation (area covered by tubules) ([2]; absence of growth factors): significantly (p<0.03) reduced tubule formation
- tubule formation (area covered by tubules) ([2]; presence of growth factors (VEGF 10 ng/ml or bFGF 10 ng/ml)): significantly (p<0.03) reduced tubule formation
